Experimental data: US6653321B1, “Naphthylsulfonic acids and related compounds as glucose uptake agonists” (Telik, Inc., priority 1999, dated 2003)

Legend:
[1] = target: T1, β-kinase domain of the human insulin receptor (CKD) (Homo sapiens, UniProt P06213); assay: 32P-Cytoplasmic Kinase Domain (CKD) autophosphorylation assay; type: biochemical; conditions: 32P incorporated into CKD band, percentage of the vehicle (DMSO) level; 10 minutes at room temperature; compound concentration not given
T1 construct: The complete β-kinase domain of the human insulin receptor (CKD); made in house
Procedure: The complete β-kinase domain of the human insulin receptor (CKD) was expressed in, and purified from, baculovirus. CKD (4.0 μg/mL), in a solution of 50 mM Tris.HCl, 2 mM MnCl2, 10 mM MgCl2 (50 μl final volume), was combined with […] ATP, and 5 μCi ^32P-ATP (3000 Ci/mmol.). A test compound, or the vehicle (DMSO), was added to a final DMSO concentration of 1%. The mixture was incubated for 10 minutes at room temperature. The reaction was terminated by the addition of 10 μl of 200 mM EDTA. A 30 μl volume was removed, mixed with 5 μl of 6×Laemmeli sodium dodecyl sulfate (SDS) treatment buffer, and heated to 94° C. for 5 minutes. A 20 μl aliquot was then run on an SDS-PAGE gel. The radioactivity incorporated into the CKD band is quantified by phosphorimaging of the gel, or scintillation counting of the excised bands.
The potency of a compound for increasing phosphorylation is expressed as a percentage of the vehicle level.

3T3 L1 fibroblasts = assay: Glucose transport activity (14C-2-deoxy-D-glucose uptake); type: cell-based; conditions: Mus musculus; differentiated 3T3 L1 cells, insulin 5.6 nM; concentration giving increase in glucose transport generally 150% of the vehicle control
Procedure: 3T3 L1 fibroblasts (ATCC) were grown in Dulbecco's modified Eagle's medium (DMEM) with 10% fetal bovine serum (FBS, medium). The cells were plated at a density of 3×10^4 cells/well in 24-well plates. Two days after confluence was reached, the cells were treated for 3 days with 0.5 mM isobutylmethylxanthine (IBMX), 1 μM dexamethasone, supplemented with 1.7 μM insulin. The cells were then transferred to medium with 1.7 μM insulin for 2 more days. The cells were maintained in medium for an additional 4 days. Finally the cells were serum starved overnight in 0.1% bovine serum albumin (BSA) in DMEM.
The following day, the culture medium was replaced with 150 mM NaCl, 1.7 mM KCl, 0.9 mM CaCl2, 1.47 mM K2HPO4 (pH 7.4) to which was added either the experimental compounds, or their vehicle (DMSO). Insulin or its vehicle (0.01% BSA) was diluted in the assay buffer (containing test compound or vehicle, respectively) to a final concentration of 5.6 nM. After incubation for 30 min at 37° C. 5 μCi/mL ^14C-2-[…]-D-glucose was added, and the incubation was continued for additional 30 min at 37° C. The cells were then washed 3 times with ice-cold PBS/20 mM glucose and […] in 250 μl of lysis buffer (50 mM HEPES pH 7.6, 1% Triton X-100) for 30 min at room temperature. Radioactivity in the lysate was quantified by scintillation counting.
Once ^14C-2-deoxy-D-glucose is transported into the cell it is not released. Glucose transport is, therefore, proportional to the amount of radioactivity in the lysate. The concentration of compound necessary to produce an increase in glucose transport greater than the sum of the standard deviation of the vehicle control plus the largest standard deviation of a test sample (generally 150% of the vehicle control) was recorded as the EC (effective concentration).

T1 sequence (P06213 980-1382 limits assumed): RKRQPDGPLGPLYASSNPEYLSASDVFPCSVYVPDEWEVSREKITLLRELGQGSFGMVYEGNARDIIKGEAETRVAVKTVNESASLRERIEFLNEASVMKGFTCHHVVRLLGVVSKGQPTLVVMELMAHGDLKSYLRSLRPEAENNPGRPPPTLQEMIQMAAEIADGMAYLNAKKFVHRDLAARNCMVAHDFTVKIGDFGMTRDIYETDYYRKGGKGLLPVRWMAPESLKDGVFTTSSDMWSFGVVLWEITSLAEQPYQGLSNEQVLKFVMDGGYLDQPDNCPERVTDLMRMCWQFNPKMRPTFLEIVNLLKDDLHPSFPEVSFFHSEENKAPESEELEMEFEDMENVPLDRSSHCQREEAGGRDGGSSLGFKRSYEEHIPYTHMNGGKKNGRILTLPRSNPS

Row | Activity (% Control) [1] [% Control] | Compound | EC50 (3T3 L1 fibroblasts) [µM]
1 | 94 | O=C(Nc1cc(C(=O)Nc2cccc3cc(S(=O)(=O)O)ccc23)cc(C(=O)Nc2cccc3cc(S(=O)(=O)O)ccc23)c1)c1cccc(F)c1 [Compound 11, 5-({3-[(3-fluorophenyl)carbonylamino]-5-[N-(6-sulfonaphthyl)carbamoyl]phenyl}carbonylamino)naphthalene-2-sulfonic acid] | 20
2 | 83.7 | COc1cccc(C(=O)Nc2cc(C(=O)Nc3cccc4cc(S(=O)(=O)O)ccc34)cc(C(=O)Nc3cccc4cc(S(=O)(=O)O)ccc34)c2)c1 [Compound 13, 5-({3-[(3-methoxyphenyl)carbonylamino]-5-[N-(6-sulfonaphthyl)carbamoyl]phenyl}carbonylamino)naphthalene-2-sulfonic acid] | 200
3 | 88.2 | O=C(Nc1cc(C(=O)Nc2cccc3cc(S(=O)(=O)O)ccc23)cc(C(=O)Nc2cccc3cc(S(=O)(=O)O)ccc23)c1)c1cccc([N+](=O)[O-])c1 [Compound 15, 5-({3-[(3-nitrophenyl)carbonylamino]-5-[N-(6-sulfonaphthyl)carbamoyl]phenyl}carbonylamino)naphthalene-2-sulfonic acid] | 240
4 | 99 | O=C(Nc1cc(C(=O)Nc2cccc3cc(S(=O)(=O)O)ccc23)cc(C(=O)Nc2cccc3cc(S(=O)(=O)O)ccc23)c1)c1ccc(Cl)cc1 [Compound 19, 5-({3-[(4-chlorophenyl)carbonylamino]-5-[N-(6-sulfonaphthyl)carbamoyl]phenyl}carbonylamino)naphthalene-2-sulfonic acid] | 150
5 | 75.9 | O=C(Nc1cc(C(=O)Nc2cccc3cc(S(=O)(=O)O)ccc23)cc(C(=O)Nc2cccc3cc(S(=O)(=O)O)ccc23)c1)c1ccccc1 [Compound 22, 5-({3-(phenylcarbonylamino)-5-[N-(6-sulfonaphthyl)carbamoyl]phenyl}carbonylamino)naphthalene-2-sulfonic acid] | 200

More lines, now with the values behind:

Row | Compound | Activity (% Control) [1] [% Control] | EC50 (3T3 L1 fibroblasts) [µM]
6 | Cc1ccc(C(=O)Nc2cc(C(=O)Nc3cccc4cc(S(=O)(=O)O)ccc34)cc(C(=O)Nc3cccc4cc(S(=O)(=O)O)ccc34)c2)cc1[N+](=O)[O-] [Compound 16, 5-({3-[(3-nitro-4-methylphenyl)carbonylamino]-5-[N-(6-sulfonaphthyl)carbamoyl]phenyl}carbonylamino)naphthalene-2-sulfonic acid] | 99.9 | 20
7 | O=C(Nc1cccc2cc(S(=O)(=O)O)ccc12)c1cc(NC(=O)c2ccccc2C(=O)O)cc(C(=O)Nc2cccc3cc(S(=O)(=O)O)ccc23)c1 [Compound 17, 2-(N-{3,5-bis[N-(6-sulfonaphthyl)carbamoyl]phenyl}carbamoyl)benzoic acid] | 92.7 | > 250
8 | O=C(Nc1cccc2cc(S(=O)(=O)O)ccc12)c1cc(NC(=O)c2cc(Cl)c(Cl)cc2C(=O)O)cc(C(=O)Nc2cccc3cc(S(=O)(=O)O)ccc23)c1 [Compound 18, 2-(N-{3,5-bis[N-(6-sulfonaphthyl)carbamoyl]phenyl}carbamoyl)-4,5-dichlorobenzoic acid] | 95.3 | > 250
9 | O=C(Nc1cccc2cc(S(=O)(=O)O)ccc12)c1cc(NC(=O)c2cccc(O)c2C(=O)O)cc(C(=O)Nc2cccc3cc(S(=O)(=O)O)ccc23)c1 [Compound 21, 2-(N-{3,5-bis[N-(6-sulfonaphthyl)carbamoyl]phenyl}carbamoyl)-6-hydroxybenzoic acid] | 104.3 | > 250
10 | CC(=O)Nc1cc(C(=O)Nc2cccc3cc(S(=O)(=O)O)ccc23)cc(C(=O)Nc2cccc3cc(S(=O)(=O)O)ccc23)c1 [Compound 23, 5-({3-(acetylamino)-5-[N-(6-sulfonaphthyl)carbamoyl]phenyl}carbonylamino)naphthalene-2-sulfonic acid] | 86.8 | > 250
11 | O=C(Nc1cccc2cc(S(=O)(=O)O)ccc12)c1cc(NC(=O)c2cnc3ccccc3n2)cc(C(=O)Nc2cccc3cc(S(=O)(=O)O)ccc23)c1 [Compound 39] | 96.9 | 100
12 | Cc1ccc(OCC(=O)Nc2cc(C(=O)Nc3cccc4cc(S(=O)(=O)O)ccc34)cc(C(=O)Nc3cccc4cc(S(=O)(=O)O)ccc34)c2)cc1 [Compound 40, 5-({3-[2-(4-methylphenoxy)acetylamino]-5-[N-(6-sulfonaphthyl)carbamoyl]phenyl}carbonylamino)naphthalene-2-sulfonic acid] | 130.7 | > 250
